Data reported in patent publication US5750754A, “Heterocyclic compounds” (Zeneca Limited, priority 1993, dated 1998).
Structures can show the parent of a compound that is named as a salt.

Legend:
[1] = biological target: T1, human, citrated, platelet-rich plasma (Homo sapiens, UniProt P05106+P08514); assay: Test (a): inhibition of ADP stimulated platelet aggregation (Born); format: cell-based; conditions: ADP induced aggregation of human platelet-rich plasma; read-out: Test (a): pA2 value indicating potency of platelet aggregation inhibition (converted)
T1 construct: aggregating human, citrated, platelet-rich plasma; endogenous in cells; host or cells: human platelets in citrated platelet-rich plasma
T1 sequence (P08514 32-887 limits assumed): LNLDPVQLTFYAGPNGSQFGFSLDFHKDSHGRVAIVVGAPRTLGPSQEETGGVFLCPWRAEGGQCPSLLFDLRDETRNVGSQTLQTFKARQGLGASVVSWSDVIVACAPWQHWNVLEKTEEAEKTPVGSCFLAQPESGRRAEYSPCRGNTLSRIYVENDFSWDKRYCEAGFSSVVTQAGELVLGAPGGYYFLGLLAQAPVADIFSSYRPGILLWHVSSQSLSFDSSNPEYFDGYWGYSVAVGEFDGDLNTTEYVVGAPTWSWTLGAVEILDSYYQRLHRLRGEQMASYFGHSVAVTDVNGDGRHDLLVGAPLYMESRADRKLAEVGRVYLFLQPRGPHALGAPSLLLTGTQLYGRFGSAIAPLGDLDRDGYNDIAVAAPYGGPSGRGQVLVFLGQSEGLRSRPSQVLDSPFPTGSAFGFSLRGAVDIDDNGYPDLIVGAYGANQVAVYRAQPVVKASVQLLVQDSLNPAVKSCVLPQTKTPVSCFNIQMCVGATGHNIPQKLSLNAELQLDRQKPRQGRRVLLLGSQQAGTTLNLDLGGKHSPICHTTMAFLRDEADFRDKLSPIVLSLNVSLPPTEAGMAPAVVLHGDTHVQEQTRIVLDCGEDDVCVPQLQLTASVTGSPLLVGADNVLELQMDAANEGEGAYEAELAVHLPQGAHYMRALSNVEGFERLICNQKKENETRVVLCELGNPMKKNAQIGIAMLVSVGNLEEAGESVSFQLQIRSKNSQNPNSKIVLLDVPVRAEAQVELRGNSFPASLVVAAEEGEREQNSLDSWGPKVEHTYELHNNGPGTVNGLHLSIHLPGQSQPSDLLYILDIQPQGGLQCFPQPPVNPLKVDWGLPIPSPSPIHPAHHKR
T1 sequence (P08514 891-1039 limits assumed): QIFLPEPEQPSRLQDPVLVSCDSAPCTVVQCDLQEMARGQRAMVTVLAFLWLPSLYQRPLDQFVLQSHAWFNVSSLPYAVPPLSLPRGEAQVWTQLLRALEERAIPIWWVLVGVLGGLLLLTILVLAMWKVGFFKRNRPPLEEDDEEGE
T1 sequence (P05106 27-788): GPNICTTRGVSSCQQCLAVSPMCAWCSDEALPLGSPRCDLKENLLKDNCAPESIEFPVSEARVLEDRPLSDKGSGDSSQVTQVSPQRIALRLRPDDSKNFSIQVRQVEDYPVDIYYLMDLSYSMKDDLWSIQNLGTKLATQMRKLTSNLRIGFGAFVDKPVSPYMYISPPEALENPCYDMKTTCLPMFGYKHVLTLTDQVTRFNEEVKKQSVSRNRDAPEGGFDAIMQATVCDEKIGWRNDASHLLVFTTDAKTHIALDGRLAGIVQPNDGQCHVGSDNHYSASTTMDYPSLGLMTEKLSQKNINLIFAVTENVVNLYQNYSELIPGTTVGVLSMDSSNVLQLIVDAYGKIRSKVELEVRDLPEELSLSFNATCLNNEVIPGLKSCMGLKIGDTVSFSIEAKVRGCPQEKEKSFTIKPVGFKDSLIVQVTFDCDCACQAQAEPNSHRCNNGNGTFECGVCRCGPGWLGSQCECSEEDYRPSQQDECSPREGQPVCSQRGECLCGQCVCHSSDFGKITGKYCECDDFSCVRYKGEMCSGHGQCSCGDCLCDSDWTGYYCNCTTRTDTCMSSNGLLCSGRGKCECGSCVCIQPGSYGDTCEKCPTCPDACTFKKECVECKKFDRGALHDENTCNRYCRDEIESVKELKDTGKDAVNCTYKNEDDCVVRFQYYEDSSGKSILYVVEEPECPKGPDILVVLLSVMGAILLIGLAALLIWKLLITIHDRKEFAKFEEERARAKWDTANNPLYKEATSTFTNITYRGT
Text: (i) aggregating human, citrated, platelet-rich plasma by addition of adenosine diphosphate so as to generate a dose-response curve;
(ii) generating a dose-response curve for ADP stimulated platelet aggregation in the presence of increasing amounts of a test compound (generally in the range 10-^5 M to 10-^10 M); and
(iii) calculating a pA2 value indicating potency of platelet aggregation inhibition for the test compound, averaged over several concentrations, from the calculated 50% response value for ADP aggregation in the presence and absence of the test compound.

[2] = biological target: T2, purified human platelet fibrinogen receptor (GPIIb/IIIa) (Homo sapiens, UniProt P05106+P08514); assay: Test (b): GPIIb/IIIa ELISA, inhibition of biotinylated fibrinogen binding; conditions: purified human platelet GPIIb/IIIa, ELISA; read-out: Test (b): pIC50 (-log(IC50)), 50% inhibition of biotinylated fibrinogen binding to GPIIb/IIIa (converted)
T2 construct: is isolated from human platelet lysates; from tissue
T2 sequence (P08514 32-887 limits assumed): as the sequence (P08514 32-887 limits assumed) above
T2 sequence (P08514 891-1039 limits assumed): as the sequence (P08514 891-1039 limits assumed) above
T2 sequence (P05106 27-788): as the sequence (P05106 27-788) above
Protocol: (i) Preparation of human platelet lysates.
Platelet rich plasma (PRP) is harvested by centrifugation (1000 rpm, 15 mins) of whole blood anticoaoulated with acid citrate dextrose (trisodium citrate 85 mM, citric acid 70 mM, d-glucose 110 mM) 1 part to 6 parts blood. Prostacyclin (PGI2, 1 μM) is added to the PRP before centrifugation (2400 pm, 15 mins) and the resulting pellet is resuspended in modified Tyrodes' solution (NaCl 130 mM, KCl 26 mM, NaHCO3 12 mM, NaH2 PO4 0.5 mM, MgCl2 1 mM, CaCl2 20 mM, Glucose 12 mM, HEPES 5 mM) containing bovine serum albumin 3.5 g/L, PGI2 1 μM and hirudin 0.5 U/ml. The platelet suspension is centrifuged (2400 rpm, 15 mins) and the resultant pellet resuspended in 500 μl of lysis buffer (octyl glucoside 50 mM, HEPES 10 mM, NaCl 150 mM, CaCl2 1 mM, MgCl2 1 mM, PMSF 1 mM, NEM 10 mM, leupeptin 0.1 mM), agitated at 4° C. for 15 minutes then centrifuged at 24000 rpm, 15 mins. The supernatant is stored at 4° C. and the pellet re-suspended in 500 μl of lysis buffer. The centrifugation process is repeated a further 3 tlimes, the pooled supernatants being stored at -70° C.
(ii) Receptor purification.
GP Ilb/Ila is isolated from human platelet lysates using a 2 ml peptide (KYGRGDS) coupled CNBr activated Sepharose affinity column. A 1.5 ml volume of platelet lysate is placed on the column and allowed to stand overnight at 4° C. Buffer (30 mls, octyl gluicoside 25 mM, HEPES 10 mM, NaCl 150 mM, CaCl2 1 mM, MgCl2 1 mM, PMSF 1 mM, NEM 10 mM, leupeptin 0.1 mM) is passed through the column and 2 ml fractions are collected throughout. GPIIb/IIIa is eluted with 12 mls of buffer containing HHLGGAKQAGDV (2 mg/ml, pH 7.5), the column is washed using 4 mls buffer and the remaining GPIIb/IIIa eluted using 12 mls buffer containing GRGDSPG (1 mg/ml pH 7.5). The column is finally washed using 20 mls of buffer and can be used for up to three such preparations. Fractions containing FGPIIb/IIIa are identified using gel electrophoresis and immunoblotting, pooled and stored at -70° C.
96 well microtitre plates are coated with 100 μl purified human platelet fibrinogen receptor (GPIIb/IIIa) diluted in coating buffer (Tris-HCl 20 mM, NaCl 150 mM, CaCl2 1 mM, pH 7.4) and left overnight at 4° C. The plates are washed using washing buffer (Tris-HCl 50 mM, NaCl 100 mM, CaCl2 2 mM, pH 7.4) and non-specific binding, blocked by the addition of 200 μl 2% BSA (2 hours, 30° C.). The plates are washed prior to incubation (2 hours, 30° C.) with 100 μl biotinylated fibrinogen ([…]) containing either vehicle or test compound. The plates are washed, incubated with streptavidin (5 μg/ml, 1 hour, ambient temperature), then washed again before the addition of 100 μl biotinylated horse radish peroxidase (0.1 μg/ml, 1 hour, ambient temperature). The plates are then washed and equal volumes of peroxidase substrate (3, 5, tetramethyl benzidine 0.4 g/l) and H2 O2 (0.02%) are mixed together immediately before addition of 150 μl to each well. Colour is allowed to develop for 10-15 mins before optical densities are read at 650 nm.
The concentration of compound required to cause 50% inhibition of biotinylated fibrinogen binding, is calculated and expressed as a pIC50 (-log(IC50)).

| Kb [1] [nM] | IC50 [2] [nM] | SMILES |
| --- | --- | --- |
| 398 | 126 | CCCCS(=O)(=O)N[C@@H](Cc1ccc(OCC2CCN(c3ccncc3)CC2)cc1)C(=O)OC [Example 33, Methyl 2-S-(n-butylsulphonylamino)-3-[4-[1-(4-pyridyl)piperidin-4-yl]methoxyphenyl]propionate] |
| 2 | 2 | CCCCS(=O)(=O)N[C@@H](Cc1ccc(OCC2CCN(c3ccncc3)CC2)cc1)C(=O)O [Example 34, 2-S-(n-Butylsulphonylamino)-3-[4-[1-(4-pyridyl)piperidin-4-yl]methoxyphenyl]propionic acid] |
| 398 | 63.1 | CCCCS(=O)(=O)N[C@@H](Cc1ccc(OCCC2CCN(c3ccncc3)CC2)cc1)C(=O)OC [Example 35, Methyl 2-S-(n-butylsulphonylamino)-3-[4-[2-[1-(4-pyridyl)piperidin-4-yl]ethoxy]phenyl]propionate] |
| 2 | 1 | CCCCS(=O)(=O)N[C@@H](Cc1ccc(OCCC2CCN(c3ccncc3)CC2)cc1)C(=O)O [Example 36, 2-S-(n-Butylsulphonylamino)-3-[4-[2-[1-(4-pyridyl)piperidin-4-yl]ethoxy]phenyl]propionic acid] |
| 2510 | 200 | CCCCS(=O)(=O)N[C@@H](Cc1ccc(OC2CCN(c3ccncc3)CC2)cc1)C(=O)OC [Example 37, Methyl 2-S-(n-butylsulphonylamino)-3-[4-[1-(4-pyridyl)piperidin-4-yl]oxyphenyl]propionate] |
| 31.6 | 2 | CCCCS(=O)(=O)N[C@@H](Cc1ccc(OC2CCN(c3ccncc3)CC2)cc1)C(=O)O [Example 38, 2-S-(n-Butylsulphonylamino)-3-[4-[1-(4-pyridyl)piperidin-4-yl]oxyphenyl]propionic acid] |
| 25100 | 251 | O=C(O)C[C@H](NC(=O)CN1CCN(c2ccncc2)CC1)C(=O)N[C@@H](Cc1ccccc1)C(=O)O [Example 39, N-[N-[2-[4-(4-Pyridyl)piperazin-1-yl]acetal]-L-aspartyl]-L-phenylalanine] |
| > 100000 | > 100000 | COC(=O)COc1ccc(C(=O)CN2CCN(c3cc(C)nc4ccccc34)CC2)cc1 [Example 41, Methyl 4-[2-[4-(2-methyl-4-quinolinyl)piperazin-1-yl]acetyl]phenoxyacetate] |
| 50100 | 6310 | Cc1cc(N2CCN(CC(=O)c3ccc(OCC(=O)O)cc3)CC2)c2ccccc2n1 [Example 42, 4-[2-[4-(2-Methyl-4-quinolinyl)piperazin-1-yl]acetyl]phenoxyacetic acid] |

The next lines start with the molecule.

| SMILES | Kb [1] [nM] | IC50 [2] [nM] |
| --- | --- | --- |
| COC(=O)CCc1ccc(C(=O)CN2CCN(c3ccncc3)CC2)cc1 [Example 11, Methyl 3-[4-[2-[4-(4-pyridyl)piperazin-1-yl]acetyl]phenyl]propionate] | 2000 | 39800 |
| O=C(O)CCc1ccc(C(=O)CN2CCN(c3ccncc3)CC2)cc1 [Example 12, 3-[4-[2-[4-(4-Pyridyl)piperazin-1-yl]acetyl]phenyl]propionic acid] | 501 | 63.1 |
| COC(=O)Cc1ccc(C(=O)CN2CCN(c3ccncc3)CC2)cc1 [Example 13, Methyl 4-[2-[4-(4-pyridyl)piperazin-1-yl]acetyl]phenylacetate] | 5010 | 15800 to 39800 |
| CCOC(=O)Cc1ccc(C(=O)CN2CCN(c3ccncc3)CC2)cc1 [Example 14, Ethyl 4-[2-[4-(4-pyridyl)piperazin-1-yl]acetyl]phenylacetate] | 7940 | > 100000 |
| O=C(O)Cc1ccc(C(=O)CN2CCN(c3ccncc3)CC2)cc1 [Example 15, 4-[2-[4-(4-Pyridyl)piperazin-1-yl]acetyl]phenylacetic acid, trifluoroacetate salt] | 2510 | 1260 |
| Cc1ccc(S(=O)(=O)Nc2ccc(C(=O)CN3CCN(c4ccncc4)CC3)cc2)cc1 [Example 19, N-[4-[2-[4-(4-Pyridyl)piperazin-1-yl]acetyl]phenyl-4-methylphenyl]-sulphonamide] | 2510 | 2000 |
| CCCCS(=O)(=O)Nc1ccc(C(=O)CN2CCN(c3ccncc3)CC2)cc1 [Example 20, N-4-[2-[4-(4-Pyridyl)piperazin-1-yl]acetyl]phenyl-1-butanesulphonamide] | 5010 | 15800 |
| Cc1ccc(S(=O)(=O)NCc2ccc(C(=O)CN3CCN(c4ccncc4)CC3)cc2)cc1 [Example 21, N-[4-[2-[4-(4-Pyridyl)piperazin-1-yl]acetyl]phenyl]methyl-4-methylphenylsulphonamide] | 63.1 to 158 | 158 to 501 |
| CCCCS(=O)(=O)NCc1ccc(C(=O)CN2CCN(c3ccncc3)CC2)cc1 [Example 22, N-[4-[2-[4-(4-Pyridyl)piperazin-1-yl]acetyl]phenyl]methyl-1-butanesulphonamide] | 126 to 200 | 3980 |
| Cc1ccc(S(=O)(=O)NCCc2ccc(C(=O)CN3CCN(c4ccncc4)CC3)cc2)cc1 [Example 23, N-[2-[4-[2-[4-(4-Pyridyl)piperazin-1-yl]acetyl]phenyl]ethyl]-4-methylphenylsulphonamide] | 1000 | 6310 to 31600 |
| CCCCS(=O)(=O)NCCc1ccc(C(=O)CN2CCN(c3ccncc3)CC2)cc1 [Example 24, N-[2-[4-[2-[4-(4-Pyridyl)piperazin-1-yl]acetyl]phenyl]ethyl]-1-butanesulphonamide] | 2000 | 31600 |
| COC(=O)c1cc2cc(C(=O)CN3CCN(c4ccncc4)CC3)ccc2o1 [Example 25, Methyl 5-[2-[4-(4-pyridyl)piperazin-1-yl]acetyl]benzofuran-2-carboxylate] | 7940 | 15800 |
| O=C(CN1CCN(c2ccncc2)CC1)c1ccc2oc(C(=O)O)cc2c1 [Example 26, 5-[2-[4-(4-Pyridyl)piperazin-1-yl]acetyl]benzofuran-2-carboxylic acid] | 1580 | 631 |
| CCOC(=O)C1CCN(C(=O)CN2CCN(c3ccncc3)CC2)CC1 [Example 27, Ethyl 1-[2-[4-(4-pyridyl)piperazin-1-yl]acetyl]piperidin-4-carboxylate] | 7940 | 2510 |
| O=C(O)C1CCN(C(=O)CN2CCN(c3ccncc3)CC2)CC1 [Example 28, 1-[2-[4-(4-Pyridyl)piperazin-1-yl]acetyl]piperidin-4-carboxylic acid] | 20000 | 2000 |
| O=C(O)CC1CCN(C(=O)CN2CCN(c3ccncc3)CC2)CC1 [Example 30, 2-[1-[2-[4-(4-Pyridyl)piperazin-1-yl]acetyl]piperidin-4-yl]acetic acid] | 5010 | 1260 |
| O=C(O)COC1CCN(C(=O)CN2CCN(c3ccncc3)CC2)CC1 [Example 32, 2-[1-[2-[4-(4-Pyridyl)piperazin-1-yl]acetyl]piperidin-4-yloxy]acetic acid] | 200 | 50.1 |
| O=C(O)C[C@H](NC(=O)CNC(=O)CN1CCN(c2ccncc2)CC1)C(=O)N[C@@H](Cc1ccccc1)C(=O)O [Example 40] | 79.4 | 20 |
